{"source": "patent US10545133B2", "about": "“Molecular signatures of invasive cancer subpopulations” (The Johns Hopkins University, priority 2013, dated 2020)", "type_in_all_cases": "cell-based, mouse", "key": {"[1]": {"system": "MMTV-PyMT tumor organoids", "assay": "Mitosis (pH3) and K14 staining of tumor organoids treated with a mitosis inhibitor", "details": "aphidicolin 10 mM from day 0, 3D collagen matrix", "from_the_text": "FIG. 4. Lumenal Tumor Cells Acquire Markers of Basal Differentiation (A) Mouse mammary tumor organoids grown in 3D collagen matrix stained with K8 and K14. (B) Bar graph of percentage of tumor organoids with K8 or K14 intensity equal to or greater than 1+ as a function of time. K14 and K8 intensity was quantified into 0 (no or few), 1 (intermediate), or 2 (bright) K14 signal. Data are presented as mean±SD. For K14: n=719 organoids from 5-8 mice per day; for K8: n=269 organoids from 3 mice per day. (C) Mammary tumor organoids grown in 3D collagen matrix stained with p63 and DAPI. (D) The percentage of organoids with nuclei positive for p63 was counted. Data are presented as mean±SD. n=114 organoids from 2 mice per day. (E) Invasion was quantified by scoring protrusive morphology of cancer cells in contact with the ECM. Data are presented as mean±SD. n=916 organoids from 4-7 mice per day. (F) Tumor organoids treated from day 0 with DMSO vehicle or a mitosis inhibitor (aphidicolin 10 mM) stained with K14, pH3, and DAPI. […] (H) K14 intensity scored in vehicle or aphidicolin. K14 intensity was quantified into 0 (no or few), 1 (intermediate), or 2 (bright) K14 signal. n=110 organoids from 2 mice per condition. […] All p values were determined by two-sided t test. *p<0.05. **p<0.01. ***p<0.001. […]"}, "[2]": {"system": "K14+ cells", "assay": "Doxorubicin challenge of mammary carcinoma cells", "details": "challenge with doxorubicin"}, "[3]": {"system": "MMTV-PyMT tumor organoids", "assay": "Oxytocin contractility experiment", "from_the_text": "FIG. 8. Leader Cells Are Molecularly Distinct from Normal Differentiated Myoepithelial Cells and Coexpress Lumenal Epithelial Markers, Related to FIG. 1 (A-C) Leader cells from MMTV-PyMT tumor organoids stained with K14 and K8 (A), K8, p63, and phalloidin (B), or E-cadherin (Ecad) and phalloidin (C). Arrow in (A), a K14+K8+ cell. Arrow in (B), a K8+p63+ cell. 75% of leaders were K14+K8+(n=21/28) and 34% of leaders were K8+p63+(n=22/65). Blue arrows in (C), Ecadherin staining at cell-cell contacts between leader and follower cells. […] Data presented as mean±sd. n=3 normal and tumor organoids. **p<0.01, *p<0.05; p values determined by two-sided t test. […] (G) The reduction in organoid area calculated in (F) provides a proxy for oxytocin-dependent contractility. Organoids were incubated in oxytocin at the specified doses, and the change in area was determined. […] N=23-30 organoids per condition from 3 independent experiments. *p<0.005, […]; p values determined by two-sided t test. […]\nNormal mammary epithelial organoids and MMTV-PyMT tumor organoids were embedded in 3D collagen I matrix and cultured in FGF2 organoid media for 4 days. Normal and tumor organoids were then monitored by DIC time-lapse microscopy collecting images every 5 min. […]"}}}
{"smiles": "C[C@@]1(CO)[C@H](O)CC[C@@]2(C)[C@H]1CC[C@H]1C[C@@H]3C[C@@]12CC[C@]3(O)CO", "note": "[aphidicolin]", "values": [{"measurement": "increase in K14+ cells (K14 intensity)", "setting": "[1]", "result": "did not prevent an increase in K14+ cells"}, {"measurement": "mitosis (pH3+ nuclei per tumor organoid)", "setting": "[1]", "result": "blocked mitosis completely"}]}
{"smiles": "COc1cccc2c1C(=O)c1c(O)c3c(c(O)c1C2=O)C[C@@](O)(C(=O)CO)C[C@@H]3O[C@H]1C[C@H](N)[C@H](O)[C@H](C)O1", "note": "[doxorubicin]", "values": [{"measurement": "representation of K14+ cells among the intrinsically resistant cells", "setting": "[2]", "result": "strongly overrepresented"}]}
{"smiles": "CC[C@H](C)[C@@H]1NC(=O)[C@H](Cc2ccc(O)cc2)NC(=O)[C@@H](N)CSSC[C@@H](C(=O)N2CCC[C@H]2C(=O)N[C@@H](CC(C)C)C(=O)NCC(N)=O)NC(=O)[C@H](CC(N)=O)NC(=O)[C@H](CCC(N)=O)NC1=O", "note": "[oxytocin]", "values": [{"measurement": "time of maximal contraction postincubation", "setting": "[3]; normal mammary and MMTV-PyMT tumor organoids, oxytocin at nM concentrations", "result": 25, "unit": "min"}, {"measurement": "contraction of leader cells in response to oxytocin", "setting": "[3]; oxytocin 5 and 50 nM, 3D collagen I, day 4", "result": "did not contract"}]}
